Test results as given in publication PMC9967051, “(S)-N-Benzyl-1-phenyl-3,4-dihydroisoqunoline-2(1H)-carboxamide Derivatives, Multi-Target Inhibitors of Monoamine Oxidase and Cholinesterase: Design, Synthesis, and Biological Activity” (Molecules, 2023).

How the values were obtained:
MAO = MAO activity assay (total MAO); assay type: biochemical; conditions: for Inhibition Rate for MAO: compounds concentration 100 µM
Description: (§1) The enzyme activity analysis was performed according to the procedure reported by Matsumoto et al. with slight modifications. All materials used in the enzymatic assays were purchased from Aladdin Reagent Chemicals. […] The concentrations of the synthesized compounds altered from 0.001 µM to 100 µM for the MAO-A and -B enzyme activity inhibition. […] The enzymatic reactions were caused by the addition of MAO-A (40 µg/mL) or MAO-B (20 µg/mL), and cultured at 37 °C for 30 min. The enzyme reactions were stopped through the addition of 2N NaOH for 75 µL. […] The inhibitory effect of enzyme activity was calculated as a percentage of product formation compared to the corresponding control with no inhibitor. A control was established to determine the interference of the tested compounds to the fluorescence assay, and the enzyme or substrate was added after the reaction stopped.

MAO-A = target: T1, MAO-A (Homo sapiens, UniProt P21397); assay: MAO activity assay, MAO-A; assay type: biochemical
T1 construct: purchased Aladdin Reagent Chemicals
T1 sequence (P21397 1-527): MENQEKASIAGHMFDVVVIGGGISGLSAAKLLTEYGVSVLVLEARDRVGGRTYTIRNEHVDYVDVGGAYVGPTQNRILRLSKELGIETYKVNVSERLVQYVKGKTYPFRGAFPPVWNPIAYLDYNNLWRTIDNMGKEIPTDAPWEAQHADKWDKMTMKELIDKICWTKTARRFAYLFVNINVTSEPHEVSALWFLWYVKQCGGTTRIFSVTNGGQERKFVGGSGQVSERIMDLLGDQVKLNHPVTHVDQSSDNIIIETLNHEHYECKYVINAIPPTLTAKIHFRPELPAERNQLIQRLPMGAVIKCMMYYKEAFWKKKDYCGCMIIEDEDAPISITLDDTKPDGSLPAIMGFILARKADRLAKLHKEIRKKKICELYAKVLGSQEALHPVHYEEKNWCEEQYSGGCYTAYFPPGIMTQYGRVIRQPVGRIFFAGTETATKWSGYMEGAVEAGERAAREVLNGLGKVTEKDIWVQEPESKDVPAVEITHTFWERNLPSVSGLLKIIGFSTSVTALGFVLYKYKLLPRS
Description: as §1

MAO-B = target: T2, MAO-B (Homo sapiens, UniProt P27338); assay: MAO activity assay, MAO-B; assay type: biochemical
T2 construct: purchased Aladdin Reagent Chemicals
T2 sequence (P27338 1-520): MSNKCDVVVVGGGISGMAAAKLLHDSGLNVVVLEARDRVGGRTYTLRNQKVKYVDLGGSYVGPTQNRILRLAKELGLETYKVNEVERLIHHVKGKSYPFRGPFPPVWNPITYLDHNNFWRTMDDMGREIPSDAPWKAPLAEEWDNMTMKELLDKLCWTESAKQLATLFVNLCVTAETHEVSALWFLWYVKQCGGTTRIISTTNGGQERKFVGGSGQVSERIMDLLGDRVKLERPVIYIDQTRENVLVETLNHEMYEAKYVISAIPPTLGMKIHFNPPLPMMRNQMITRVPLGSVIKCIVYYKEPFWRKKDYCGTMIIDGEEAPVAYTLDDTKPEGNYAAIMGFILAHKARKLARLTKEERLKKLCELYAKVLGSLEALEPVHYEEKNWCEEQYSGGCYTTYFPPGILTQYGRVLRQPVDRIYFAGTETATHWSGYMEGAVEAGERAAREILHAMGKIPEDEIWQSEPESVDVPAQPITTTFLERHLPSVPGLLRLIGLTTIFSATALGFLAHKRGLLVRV
Description: as §1

L929 cells [1] = assay: AO fluorescent staining cell viability; assay type: cell-based; conditions: 100 μM, compared with the control group
Description: Using the AO Fluorescent Staining Kit, AO is a tricyclic heteroaromatic dye that can penetrate cells with intact cell membranes and embed nuclear DNA, making them emit bright green fluorescence. L929 cells were selected from the logarithmic growth phase, and the cell density was adjusted to 8 × 10^5 per well with a cell counter to inoculate in a 6-well plate, and the 6-well plate was placed in a 37 °C 5% carbon dioxide cell incubator for 12 h. It grew completely adhering to the wall. After 12 h, 1 mL of medium containing 100 μM of the compound to be tested was added (for the blank group, drug-free medium was added), shaken gently, and placed in a 5% carbon dioxide cell incubator at 37 °C for 12 h. After 12h, the medium was discarded, PBS was added to wash once, 1 mL of PBS and 80 μL of AO solution (prepared according to the kit instructions) were slowly added in the dark, and mixed for 5 min to make the staining uniform and sufficient. The staining was aspirated after 5 min, washed 1–2 times with PBS, and observed under a fluorescence microscope, the results were recorded and analyzed.

MTT cytotoxicity test = assay type: cell-based; conditions: mouse; L929 cells, compared with the blank control, 3.125 to 100 μM
Description: (§2) L929 cells in the logarithmic growth phase were selected, and the cell density was adjusted to 2 × 10^4 per well by a cell counter. The 96-well plate was inoculated in a 96-well plate, and the 96-well plate inoculated with cells was cultured in a 37 °C 5% carbon dioxide cell incubator for 24 h. Then, the medium containing 100 μM of the compound to be tested was added (the blank group was added to the medium without drug), shaken gently, and placed in a 5% carbon dioxide cell incubator at 37 °C for 24 h. Each concentration was repeated for […].
(§3) The assay detects live cells, but not dead cells, and the resulting signal depends on how activated the cells are. […] Therefore, MTT has been used to establish quantitative colorimetric assays for mammalian cell survival and proliferation. Therefore, this method can be used to measure cytotoxicity, proliferation, or activation. After 24 h, 20 μL of […] MTT solution (prepared in PBS with pH 7.6) was added in the dark, and cultured in a cell incubator for another 4 h. After 4 h, the 96 plate was taken out to discard the original medium, and 160 μL of DMSO was added, placed on a shaker, and mixed for about 10 min. Then, a microplate reader was used to measure its absorbance at 490 nm, and the results were recorded and analyzed.

L929 cells [2] = assay: MTT cytotoxicity test; assay type: cell-based; conditions: MTT, 3.125 to 100 μM
Description: as §2, §3

BChE = BChE (Homo sapiens, UniProt P06276); assay: biochemical; conditions: compounds concentration 100 µM; read-out: Inhibition Rate BChE
BChE, sequence (P06276 29-602): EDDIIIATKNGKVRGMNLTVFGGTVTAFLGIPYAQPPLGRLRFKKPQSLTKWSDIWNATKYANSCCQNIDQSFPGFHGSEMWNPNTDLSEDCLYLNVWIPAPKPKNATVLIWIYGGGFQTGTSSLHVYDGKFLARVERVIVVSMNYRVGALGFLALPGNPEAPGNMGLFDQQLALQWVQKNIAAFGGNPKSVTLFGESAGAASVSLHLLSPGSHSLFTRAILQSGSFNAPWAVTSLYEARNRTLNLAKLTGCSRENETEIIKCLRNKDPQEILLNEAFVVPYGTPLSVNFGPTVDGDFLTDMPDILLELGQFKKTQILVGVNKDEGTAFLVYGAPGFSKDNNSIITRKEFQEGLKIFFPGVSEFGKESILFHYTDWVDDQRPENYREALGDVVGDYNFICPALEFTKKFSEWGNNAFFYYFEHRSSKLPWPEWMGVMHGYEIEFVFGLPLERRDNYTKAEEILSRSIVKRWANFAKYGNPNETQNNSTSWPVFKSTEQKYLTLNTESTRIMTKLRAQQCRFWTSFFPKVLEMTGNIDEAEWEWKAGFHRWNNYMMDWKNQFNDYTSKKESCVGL
Description: Inhibition of AChE and BChE was measured through the spectrophotometric method developed by Ellman’s method with slight modifications. The analysis protocol contained 96-well plates (100 µL per well). Each well involved 20 µL of assay buffer solution, 20 µL of the test sample, and 40 µL of 0.2 U/mL of AChE or BChE. The mixture was incubated for 10 min at 25 °C followed by the addition of substrate (20 µL). For AChE inhibition assay, acetylthiocholine iodide (ATCI, 0.001 mol/L), while for BChE assay, butyrylthiocholine chloride (BTCCl, 0.001 mol/L) was added to it. The mixture was incubated at 37 °C for 15 min. Ellman reagent (5,5′-dithio-bis(2-nitrobenzoic acid), DTNB, 0.001 mol/L) was added. […] The blank analysis was performed. All the analyses were performed in triplicate. Inhibition rate of experimental sample or positive control group (%) = [(control group-blank background)-(experimental sample or positive control group -sample background)]/(control-blank background) × 100%.

| SMILES | Inhibition Rate for MAO (MAO) | inhibition at 100 µM (BChE) | also measured |
| --- | --- | --- | --- |
| O=C(NCc1c(Cl)cccc1Cl)N1CCc2ccccc2[C@@H]1c1ccccc1 [2y, (S)-N-(2,6-dichlorobenzyl)-1-phenyl-3,4-dihydroisoquinoline-2(1H)-carboxamide] | 37.7% | – | – |
| COc1ccc(CNC(=O)N2CCc3ccccc3[C@@H]2c2ccccc2)c(OC)c1 [2v, (S)-N-(2,4-dimethoxybenzyl)-1-phenyl-3,4-dihydroisoquinoline-2(1H)-carboxamide] | – | – | IC50 (MAO-A): 3510 nM; IC50 (MAO-B): 3520 nM; IC50 (MAO): 958 nM; toxicity toward L929 cells (AO fluorescence staining) (L929 cells [1]): no significant toxicity; viability at 24 h (MTT cytotoxicity test): > 90%; cytotoxicity against L929 cells (L929 cells [2]): no obvious cytotoxicity |
| COc1ccccc1CNC(=O)N1CCc2ccccc2[C@@H]1c1ccccc1 [2s, (S)-N-(o-methoxybenzyl)-1-phenyl-3,4-dihydroisoquinoline-2(1H)-carboxamid] | – | 39.6% | – |
| COc1ccc(CNC(=O)N2CCc3ccccc3[C@@H]2c2ccccc2)cc1OC [2w, (S)-N-(3,4-dimethoxybenzyl)-1-phenyl-3,4-dihydroisoquinoline-2(1H)-carboxamide] | – | 9.4% | – |
| N#Cc1ccc(CNC(=O)N2CCc3ccccc3[C@@H]2c2ccccc2)cc1 [2ac, (S)-N-(p-cyanobenzyl)-1-phenyl-3,4-dihydroisoquinoline-2(1H)-carboxamide] | – | 17.7% | – |
| O=C(NCc1ccc(C(F)(F)F)cc1)N1CCc2ccccc2C1c1ccccc1 (stereo in doubt) [2m, (S)-N-(p-(trifluoromethyl)benzyl)-1-phenyl-3,4-dihydroisoquinoline-2(1H)-carboxa-mide] | 35.8% | – | – |
| O=C(NCc1ccc(OC(F)(F)F)cc1)N1CCc2ccccc2C1c1ccccc1 (stereo in doubt) [2o, (S)-N-(p-(trifluoromethoxy)benzyl)-1-phenyl-3,4-dihydroisoquinoline-2(1H)-carbox-amide] | 31.1% | – | – |
| O=C(NCc1cccc(Cl)c1)N1CCc2ccccc2[C@@H]1c1ccccc1 [2f, (S)-N-(m-chlorobenzyl)-1-phenyl-3,4-dihydroisoquinoline-2(1H)-carboxamide] | – | 3.4% | – |
| O=C(NCc1ccc(F)cc1F)N1CCc2ccccc2[C@@H]1c1ccccc1 [2aa, (S)-N-(2,4-difluorobenzyl)-1-phenyl-3,4-dihydroisoquinoline-2(1H)-carboxamide] | 32.1% | – | – |
| COc1ccc(CNC(=O)N2CCc3ccccc3[C@@H]2c2ccccc2)cc1 [2u, (S)-N-(p-methoxybenzyl)-1-phenyl-3,4-dihydroisoquinoline-2(1H)-carboxamide] | – | 40.7% | – |
| O=C(NCc1ccc(Cl)c(Cl)c1)N1CCc2ccccc2[C@@H]1c1ccccc1 [2z, (S)-N-(3,4-dichlorobenzyl)-1-phenyl-3,4-dihydroisoquinoline-2(1H)-carboxamide] | 7.40% | 12.1% | – |
| O=C(NCc1ccccc1C(F)(F)F)N1CCc2ccccc2C1c1ccccc1 (stereo in doubt) [2k, (S)-N-(o-(trifluoromethyl)benzyl)-1-phenyl-3,4-dihydroisoquinoline-2(1H)-carboxa-mide] | 33.0% | – | – |
| C#CCN[C@@H]1CCc2ccccc21 [Rasagiline, reference compound] | 91.75% | – | IC50 (MAO): 338 nM |
| O=C(NCc1ccccc1Cl)N1CCc2ccccc2[C@@H]1c1ccccc1 [2e, (S)-N-(o-chlorobenzyl)-1-phenyl-3,4-dihydroisoquinoline-2(1H)-carboxamide] | 41.4% | – | – |
| O=C(NCc1ccc(Cl)cc1)N1CCc2ccccc2[C@@H]1c1ccccc1 [2g, (S)-N-(p-chlorobenzyl)-1-phenyl-3,4-dihydroisoquinoline-2(1H)-carboxamide] | 21.2% | – | – |
| O=C(NCc1cccc(C(F)(F)F)c1)N1CCc2ccccc2C1c1ccccc1 (stereo in doubt) [2l, (S)-N-(m-(trifluoromethyl)benzyl)-1-phenyl-3,4-dihydroisoquinoline-2(1H)-carbox-amide] | – | 49.1% | – |
| O=C(NCc1c(F)cccc1F)N1CCc2ccccc2[C@@H]1c1ccccc1 [2ab, (S)-N-(2,6-difluorobenzyl)-1-phenyl-3,4-dihydroisoquinoline-2(1H)-carboxamide] | 33.0% | 24.9% | – |
| O=C(NCc1ccccc1OC(F)(F)F)N1CCc2ccccc2C1c1ccccc1 (stereo in doubt) [2n, (S)-N-(o-(trifluoromethoxy)benzyl)-1-phenyl-3,4-dihydroisoquinoline-2(1H)-carbox-amide] | 33.0% | – | – |
| Cc1cccc(CNC(=O)N2CCc3ccccc3[C@@H]2c2ccccc2)c1 [2q, (S)-N-(m-methylbenzyl)-1-phenyl-3,4-dihydroisoquinoline-2(1H)-carboxamide] | – | 8.7% | – |
| O=C(NCc1ccccc1F)N1CCc2ccccc2[C@@H]1c1ccccc1 [2b, (S)-N-(o-fluorobenzyl)-1-phenyl-3,4-dihydroisoquinoline-2(1H)-carboxamide] | – | 49% | – |
| O=C(NCc1ccc(Cl)cc1Cl)N1CCc2ccccc2[C@@H]1c1ccccc1 [2x, (S)-N-(2,4-dichlorobenzyl)-1-phenyl-3,4-dihydroisoquinoline-2(1H)-carboxamide] | 44.7% | – | – |
